Test results from patent US20090155387A1, “STABLE PHARMACEUTICAL COMPOSITION COMPRISING BETA-LACTAM ANTIBIOTIC AND ION-CHELATING AGENT” (priority 2006, published 2009).

Test: Amounts of β-lactam antibiotic, β-lactamase inhibitor and aminoglycoside antibiotic in solution over time (reverse-phase LC/HPLC)
Format: physicochemical
Protocol: The amounts of β-lactam antibiotics and β-lactamase inhibitor were determined using C18 reverse-phase LC and UV-VIS detector (Tianjin […] Co., Ltd., analysis method No. HM-K-03). The content of aminoglycoside antibiotics was measured using reverse-phase HPLC and evaporation-light-scattering detector (ELSD detector) (Tianjin […] Co., Ltd., analysis method No. HM-K-08). The amount of antibiotic component at each time point was expressed as a percentage with respect to the amount at the initial time. The relative amount of each antibiotic component in the composition at each time point was expressed as peak area ratio with respect to the corresponding peak area of an external standard.

SMILES: CC1(C)[C@H](C(=O)O)N2C(=O)C[C@H]2S1(=O)=O [Sulbactam sodium]
- amount (percentage of initial amount) (in Example 4 solution (no EDTA), pH 6.75, room temperature, 0 h): 101.4%
- amount (percentage of initial amount) (in Example 4 solution (no EDTA), pH 6.75, room temperature, 1 h): 101.4%
- amount (percentage of initial amount) (in Example 4 solution (no EDTA), pH 6.75, room temperature, 2 h): 101.5%
- amount (percentage of initial amount) (in Example 4 solution (no EDTA), pH 6.75, room temperature, 4 h): 109.7%
- amount (percentage of initial amount) (in Example 4 solution (no EDTA), pH 6.75, room temperature, 6 h): 103.2%
- amount (percentage of initial amount) (in Example 5 solution, pH 6.75, room temperature, 0 h): 101.4%
- amount (percentage of initial amount) (in Example 5 solution, pH 6.75, room temperature, 1 h): 101.4%
- amount (percentage of initial amount) (in Example 5 solution, pH 6.75, room temperature, 2 h): 101.5%
- amount (percentage of initial amount) (in Example 5 solution, pH 6.75, room temperature, 4 h): 109.7%
- amount (percentage of initial amount) (in Example 5 solution, pH 6.75, room temperature, 6 h): 103.2%
- amount (percentage of initial amount) (in Example 6 solution, pH 6.5, room temperature, 0 h): 99.62%
- amount (percentage of initial amount) (in Example 6 solution, pH 6.5, room temperature, 1 h): 100.4%
- amount (percentage of initial amount) (in Example 6 solution, pH 6.5, room temperature, 2 h): 100.2%
- amount (percentage of initial amount) (in Example 6 solution, pH 6.5, room temperature, 4 h): 100.2%
- amount (percentage of initial amount) (in Example 7 solution, pH 6.75, room temperature, 0 h): 96.84%
- amount (percentage of initial amount) (in Example 7 solution, pH 6.75, room temperature, 1 h): 94.43%
- amount (percentage of initial amount) (in Example 7 solution, pH 6.75, room temperature, 2 h): 93.35%
- amount (percentage of initial amount) (in Example 7 solution, pH 6.75, room temperature, 4 h): 93.23%
- amount (percentage of initial amount) (in Example 7 solution, pH 6.75, room temperature, 6 h): 92.13%
- amount (percentage of initial amount) (in Example 7 solution, pH 6.75, room temperature, 8 h): 93.38%
- amount (percentage of initial amount) (in Example 12 solution (no aminoglycoside) from freeze-dried powder stored 7 days at 0° C., redissolved, 0 h): 98.5%
- amount (percentage of initial amount) (in Example 12 solution (no aminoglycoside) from freeze-dried powder stored 7 days at 0° C., redissolved, 1 h): 98.7%
- amount (percentage of initial amount) (in Example 12 solution (no aminoglycoside) from freeze-dried powder stored 7 days at 0° C., redissolved, 2 h): 98.2%
- amount (percentage of initial amount) (in Example 12 solution (no aminoglycoside) from freeze-dried powder stored 7 days at 0° C., redissolved, 4 h): 95.6%
- amount (percentage of initial amount) (in Example 12 solution (no aminoglycoside) from freeze-dried powder stored 7 days at 0° C., redissolved, 6 h): 94.0%
- amount (percentage of initial amount) (in Example 12 solution (no aminoglycoside) from freeze-dried powder stored 7 days at 0° C., redissolved, 8 h): 96.1%
- amount (percentage of initial amount) (in Example 14 solution, pH 6.5, room temperature, 0 h): 92.44%
- amount (percentage of initial amount) (in Example 14 solution, pH 6.5, room temperature, 1 h): 91.27%
- amount (percentage of initial amount) (in Example 14 solution, pH 6.5, room temperature, 2 h): 90.78%
- amount (percentage of initial amount) (in Example 14 solution, pH 6.5, room temperature, 4 h): 88.38%
- amount (percentage of initial amount) (in Example 14 solution, pH 6.5, room temperature, 6 h): 86.86%
- amount (percentage of initial amount) (in Example 15 solution, pH 6.5, room temperature, 0 h): 99.50%
- amount (percentage of initial amount) (in Example 15 solution, pH 6.5, room temperature, 1 h): 96.28%
- amount (percentage of initial amount) (in Example 15 solution, pH 6.5, room temperature, 2 h): 102.5%
- amount (percentage of initial amount) (in Example 15 solution, pH 6.5, room temperature, 4 h): 95.78%
- amount (percentage of initial amount) (in Example 15 solution, pH 6.5, room temperature, 6 h): 70.74%
- amount (percentage of initial amount) (in Example 17 solution, pH 6.5, room temperature, 0 h): 114.3%
- amount (percentage of initial amount) (in Example 17 solution, pH 6.5, room temperature, 1 h): 95.83%
- amount (percentage of initial amount) (in Example 17 solution, pH 6.5, room temperature, 2 h): 93.75%
- amount (percentage of initial amount) (in Example 17 solution, pH 6.5, room temperature, 4 h): 93.78%
- amount (percentage of initial amount) (in Example 17 solution, pH 6.5, room temperature, 6 h): 95.65%
- amount (percentage of initial amount) (in Example 17 solution, pH 6.5, room temperature, 8 h): 101.0%
- amount (percentage of initial amount) (in Example 18 solution (2.5% fructose), pH 6.5, room temperature, 0 h): 98.07%
- amount (percentage of initial amount) (in Example 18 solution (2.5% fructose), pH 6.5, room temperature, 1 h): 98.13%
- amount (percentage of initial amount) (in Example 18 solution (2.5% fructose), pH 6.5, room temperature, 2 h): 72.96%
- amount (percentage of initial amount) (in Example 18 solution (2.5% fructose), pH 6.5, room temperature, 4 h): 95.16%
- amount (percentage of initial amount) (in Example 18 solution (2.5% fructose), pH 6.5, room temperature, 6 h): 99.65%
- amount (percentage of initial amount) (in Example 18 solution (2.5% fructose), pH 6.5, room temperature, 8 h): 104.9%
- amount (percentage of initial amount) (in Example 19 solution, pH 6.75, room temperature, 0 h): 108.8%
- amount (percentage of initial amount) (in Example 19 solution, pH 6.75, room temperature, 1 h): 109.6%
- amount (percentage of initial amount) (in Example 19 solution, pH 6.75, room temperature, 2 h): 111.7%
- amount (percentage of initial amount) (in Example 19 solution, pH 6.75, room temperature, 4 h): 115.9%
- amount (percentage of initial amount) (in Example 19 solution, pH 6.75, room temperature, 6 h): 120.7%
- amount (percentage of initial amount) (in Example 19 solution, pH 6.75, room temperature, 8 h): 125.6%
- amount (percentage of initial amount) (in Example 20 solution (no EDTA), pH 6.75, room temperature, 0 h): 105.6%
- amount (percentage of initial amount) (in Example 20 solution (no EDTA), pH 6.75, room temperature, 1 h): 112.2%
- amount (percentage of initial amount) (in Example 20 solution (no EDTA), pH 6.75, room temperature, 2 h): 112.6%
- amount (percentage of initial amount) (in Example 20 solution (no EDTA), pH 6.75, room temperature, 4 h): 118.5%
- amount (percentage of initial amount) (in Example 20 solution (no EDTA), pH 6.75, room temperature, 6 h): 123.3%
- amount (percentage of initial amount) (in Example 20 solution (no EDTA), pH 6.75, room temperature, 8 h): 127.1%
- amount (percentage of initial amount) (in Example 22 solution (2.5% fructose), pH 6.0, room temperature, 0 h): 101.4%
- amount (percentage of initial amount) (in Example 22 solution (2.5% fructose), pH 6.0, room temperature, 1 h): 107.6%
- amount (percentage of initial amount) (in Example 22 solution (2.5% fructose), pH 6.0, room temperature, 2 h): 101.3%
- amount (percentage of initial amount) (in Example 22 solution (2.5% fructose), pH 6.0, room temperature, 4 h): 104.4%
- amount (percentage of initial amount) (in Example 22 solution (2.5% fructose), pH 6.0, room temperature, 6 h): 104.4%
- amount (percentage of initial amount) (in Example 22 solution (2.5% fructose), pH 6.0, room temperature, 8 h): 91.39%
- amount (percentage of initial amount) (in Example 24 solution, pH 6.75, room temperature, 0 h): 90.06%
- amount (percentage of initial amount) (in Example 24 solution, pH 6.75, room temperature, 1 h): 94.26%
- amount (percentage of initial amount) (in Example 24 solution, pH 6.75, room temperature, 2 h): 100.5%
- amount (percentage of initial amount) (in Example 24 solution, pH 6.75, room temperature, 4 h): 89.94%
- amount (percentage of initial amount) (in Example 24 solution, pH 6.75, room temperature, 6 h): 94.26%
- amount (percentage of initial amount) (in Example 24 solution, pH 6.75, room temperature, 8 h): 105.0%
- amount (percentage of initial amount) (in Example 25 solution, pH 6.75, room temperature, 0 h): 99.32%
- amount (percentage of initial amount) (in Example 25 solution, pH 6.75, room temperature, 1 h): 107.5%
- amount (percentage of initial amount) (in Example 25 solution, pH 6.75, room temperature, 2 h): 97.91%
- amount (percentage of initial amount) (in Example 25 solution, pH 6.75, room temperature, 4 h): 83.79%
- amount (percentage of initial amount) (in Example 25 solution, pH 6.75, room temperature, 6 h): 94.52%
- amount (percentage of initial amount) (in Example 25 solution, pH 6.75, room temperature, 8 h): 105.5%
